These results are taken from patent US20240002441A1, “PEPTIDES AND USES THEREOF IN MODULATION OF AMYLOID-BETA PROTEIN DEGRADING PROTEASES” (priority 2020, published 2024).

One test deals with T1, ACE2 (Homo sapiens, UniProt Q9BYF1).
T1 construct: purchased R & D systems 933-ZN-010
The experiment in a line: ACE2 enzyme kinetics study with QFS (Example 5). Type of test: biochemical. Particulars: rhACE2 0.1 ng/μL, ACE2 QFS 0-100 μM; pre-incubation 1 h at 37° C. On the procedure:
(§1) Plate reader-based enzyme assays were performed using a quenched fluorescent substrate (QFS) in a 96-well format using a SpectraMAX M4 Microplate reader (Molecular Devices). The increase in fluorescence following addition of QFS (40 μM) was taken as evidence of enzyme activity. Fluorescence was monitored over 2 h at 37° C. using κEx=320 nm and λEm=405 nm. Assays were conducted in black 96-well plates. Specific enzyme activity was expressed as a rate of substrate cleavage calculated using a standard curve of 7-methoxy-coumarin-4-acetic acid.
(§2) In all plate reader-based enzyme assays using QFS, the reaction rate (μmol of substrate cleaved/min) was calculated using linear regression analysis (GraphPad Prism software version 8.01). The reaction rates calculated were used to generate the enzyme kinetic parameters Vmax and Km through non-linear regression analysis (GraphPad Prism software, version 8.01; Michaelis-Menten equation). Where indicated, enzyme activity in the presence of peptide was expressed as a % of the enzyme alone. Data were expressed as mean±SEM and statistical significance was determined using t-tests or one-way ANOVAs followed by Tukey's post-hoc test. P<0.05 was considered as statistically significant. In all assays conducted using 96-well plates, the reaction mixtures in each well were considered an independent experiment. […]

For the next test, the target named is T2, ECE1 (Homo sapiens, UniProt P42892).
T2 construct: purchased R & D systems 1784-ZN-010
T2 sequence (P42892 1-770): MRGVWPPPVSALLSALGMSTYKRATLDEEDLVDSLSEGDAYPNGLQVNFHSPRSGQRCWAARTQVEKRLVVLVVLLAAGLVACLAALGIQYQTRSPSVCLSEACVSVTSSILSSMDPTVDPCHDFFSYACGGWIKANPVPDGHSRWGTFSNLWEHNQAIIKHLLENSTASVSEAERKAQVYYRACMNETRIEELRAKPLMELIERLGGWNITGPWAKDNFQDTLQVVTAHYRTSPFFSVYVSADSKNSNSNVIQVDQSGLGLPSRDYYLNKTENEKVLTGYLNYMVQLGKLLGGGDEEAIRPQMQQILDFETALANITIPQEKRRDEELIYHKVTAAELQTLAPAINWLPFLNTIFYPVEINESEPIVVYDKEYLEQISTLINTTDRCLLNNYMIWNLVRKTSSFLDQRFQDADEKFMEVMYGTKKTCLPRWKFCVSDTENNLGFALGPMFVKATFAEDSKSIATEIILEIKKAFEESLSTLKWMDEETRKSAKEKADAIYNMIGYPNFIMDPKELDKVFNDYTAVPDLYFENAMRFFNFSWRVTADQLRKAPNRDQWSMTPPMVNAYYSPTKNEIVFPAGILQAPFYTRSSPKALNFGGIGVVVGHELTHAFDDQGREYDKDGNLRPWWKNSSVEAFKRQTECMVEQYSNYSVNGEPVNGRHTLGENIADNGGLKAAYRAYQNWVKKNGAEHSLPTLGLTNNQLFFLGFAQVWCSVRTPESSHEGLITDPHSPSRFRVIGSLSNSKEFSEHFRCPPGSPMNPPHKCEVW
The experiment in a line: QFS assay of Aβ-degrading enzymes: ECE1 (Example 6). The class given is biochemical. On the procedure: as §1
as §2, with “significant.” for “significant. In all assays conducted using 96-well plates, the reaction mixtures in each well were considered an independent experiment.”
SEQ ID NO:2 was assessed in a QFS assay against enzymes NEP, ECE1, ECE2, ACE1, ACE2, IDE and MMP-2 using the method in Example 2 and the following procedure. […]

T1 sequence (Q9BYF1 18-805): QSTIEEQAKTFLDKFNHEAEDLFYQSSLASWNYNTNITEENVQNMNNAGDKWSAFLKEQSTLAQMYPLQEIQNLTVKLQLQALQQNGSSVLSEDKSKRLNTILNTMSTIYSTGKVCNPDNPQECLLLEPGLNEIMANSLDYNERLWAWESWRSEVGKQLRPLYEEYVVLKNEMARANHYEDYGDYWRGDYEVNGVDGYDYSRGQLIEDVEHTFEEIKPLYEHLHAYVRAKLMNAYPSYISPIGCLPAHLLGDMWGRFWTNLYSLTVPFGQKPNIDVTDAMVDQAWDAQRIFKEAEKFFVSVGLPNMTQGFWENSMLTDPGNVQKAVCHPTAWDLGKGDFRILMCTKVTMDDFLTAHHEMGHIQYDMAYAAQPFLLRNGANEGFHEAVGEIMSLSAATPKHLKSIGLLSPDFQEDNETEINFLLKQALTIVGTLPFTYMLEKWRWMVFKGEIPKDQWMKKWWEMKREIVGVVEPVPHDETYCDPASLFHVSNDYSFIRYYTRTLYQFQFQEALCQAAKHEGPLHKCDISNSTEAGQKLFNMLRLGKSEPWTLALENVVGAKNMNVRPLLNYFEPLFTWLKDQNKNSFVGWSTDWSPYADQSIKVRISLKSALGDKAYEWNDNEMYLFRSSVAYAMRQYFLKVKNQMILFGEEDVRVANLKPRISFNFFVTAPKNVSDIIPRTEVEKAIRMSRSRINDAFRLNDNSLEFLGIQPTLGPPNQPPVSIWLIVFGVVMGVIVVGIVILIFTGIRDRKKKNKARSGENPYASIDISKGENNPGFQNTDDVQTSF

For the substance “H-SLFELGKMIL-NH2 [SEQ ID NO:2, H2N-SLFELGKMIL-NH2]”, the “vmax of rhACE2 in the presence of peptide” value on ACE2 is 0.09±0.002 μmol substrate cleaved/min. The “ECE1 activity compared with respective enzyme alone” value on ECE1 (peptide 2 μM (FIG. 2c)) is “did not increase”. The “ECE1 activity, concentration dependence” value on ECE1 (peptide 0.9-26 μM) is given as “did not affect”.
